# Assay results from patent US20230148005A1, “MACROCYCLIC COMPOUNDS AND USES THEREOF” (THESEUS PHARMACEUTICALS, INC., priority 2020, published 2023).
# Like-named read-outs stand apart in the source and are kept apart here.
# Key:
# Ba/F3 Parental = experiment: Ba/F3 viability assay (CellTiter-Glo), parental; assay type: cell-based
# Text: (§1) Inhibition of cell proliferation can be studied using Ba/F3 viability assays, including the Promega CellTiter-Glo cell viability assay. This assay can be used to study the effect of compounds described herein in the following assays: (1) Ba/F3 Parental; (2) Ba/F3 EGFR-Del19/T790M; (3); Ba/F3 EGFR-Del19/C797S; and (4) Ba/F3 EGFR-Del19/T790M/C797S.
# Ba/F3 EGFR-Del19/C797S = Ba/F3 EGFR-Del19/C797S (Homo sapiens, UniProt P00533, C797S, cells depend on it, form not given); experiment: Ba/F3 viability assay (CellTiter-Glo), DC; assay type: cell-based; conditions: anti-proliferation, read-out: BaF3 DC IC50
# Ba/F3 EGFR-Del19/C797S, sequence (P00533 with tags, fused parts or gaps DEL746-750/C797S, form open): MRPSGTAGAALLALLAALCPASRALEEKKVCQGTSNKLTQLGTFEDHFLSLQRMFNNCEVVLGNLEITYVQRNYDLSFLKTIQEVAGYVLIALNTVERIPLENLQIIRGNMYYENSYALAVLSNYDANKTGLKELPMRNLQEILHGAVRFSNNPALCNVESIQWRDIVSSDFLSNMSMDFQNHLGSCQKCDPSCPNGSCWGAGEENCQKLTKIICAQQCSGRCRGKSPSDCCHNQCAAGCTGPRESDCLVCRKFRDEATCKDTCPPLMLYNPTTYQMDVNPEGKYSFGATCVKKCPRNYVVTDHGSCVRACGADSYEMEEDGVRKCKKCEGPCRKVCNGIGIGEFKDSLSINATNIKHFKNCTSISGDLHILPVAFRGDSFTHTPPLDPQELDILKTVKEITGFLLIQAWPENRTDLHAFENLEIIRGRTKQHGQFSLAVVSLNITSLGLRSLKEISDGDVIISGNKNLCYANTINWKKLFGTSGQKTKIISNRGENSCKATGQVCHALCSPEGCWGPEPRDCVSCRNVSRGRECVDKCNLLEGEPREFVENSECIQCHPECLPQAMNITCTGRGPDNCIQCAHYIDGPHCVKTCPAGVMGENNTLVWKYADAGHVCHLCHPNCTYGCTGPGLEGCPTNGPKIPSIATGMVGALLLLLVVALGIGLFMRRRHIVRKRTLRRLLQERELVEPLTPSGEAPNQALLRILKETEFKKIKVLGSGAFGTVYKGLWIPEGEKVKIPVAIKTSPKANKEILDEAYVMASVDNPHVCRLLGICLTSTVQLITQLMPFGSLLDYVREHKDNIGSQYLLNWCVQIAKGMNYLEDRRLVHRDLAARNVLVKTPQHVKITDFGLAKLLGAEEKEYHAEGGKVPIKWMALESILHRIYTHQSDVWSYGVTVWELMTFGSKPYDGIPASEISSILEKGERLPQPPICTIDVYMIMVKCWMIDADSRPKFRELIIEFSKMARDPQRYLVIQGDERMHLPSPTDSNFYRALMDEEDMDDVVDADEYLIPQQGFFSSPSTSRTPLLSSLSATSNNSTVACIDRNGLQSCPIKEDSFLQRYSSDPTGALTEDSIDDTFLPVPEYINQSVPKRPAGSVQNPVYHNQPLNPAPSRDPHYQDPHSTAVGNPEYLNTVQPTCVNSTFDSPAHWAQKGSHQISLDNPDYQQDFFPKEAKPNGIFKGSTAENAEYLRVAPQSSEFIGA
# Text: as §1
# EGFR^L58R/T790M = EGFR^L58R/T790M (Homo sapiens, UniProt P00533, L858R/T790M); experiment: in vitro kinase assay (HTRF KinEASE-TK kit), LT; assay type: biochemical; conditions: kinase inhibition
# EGFR^L58R/T790M, sequence (P00533 25-1210 T790M/L858R): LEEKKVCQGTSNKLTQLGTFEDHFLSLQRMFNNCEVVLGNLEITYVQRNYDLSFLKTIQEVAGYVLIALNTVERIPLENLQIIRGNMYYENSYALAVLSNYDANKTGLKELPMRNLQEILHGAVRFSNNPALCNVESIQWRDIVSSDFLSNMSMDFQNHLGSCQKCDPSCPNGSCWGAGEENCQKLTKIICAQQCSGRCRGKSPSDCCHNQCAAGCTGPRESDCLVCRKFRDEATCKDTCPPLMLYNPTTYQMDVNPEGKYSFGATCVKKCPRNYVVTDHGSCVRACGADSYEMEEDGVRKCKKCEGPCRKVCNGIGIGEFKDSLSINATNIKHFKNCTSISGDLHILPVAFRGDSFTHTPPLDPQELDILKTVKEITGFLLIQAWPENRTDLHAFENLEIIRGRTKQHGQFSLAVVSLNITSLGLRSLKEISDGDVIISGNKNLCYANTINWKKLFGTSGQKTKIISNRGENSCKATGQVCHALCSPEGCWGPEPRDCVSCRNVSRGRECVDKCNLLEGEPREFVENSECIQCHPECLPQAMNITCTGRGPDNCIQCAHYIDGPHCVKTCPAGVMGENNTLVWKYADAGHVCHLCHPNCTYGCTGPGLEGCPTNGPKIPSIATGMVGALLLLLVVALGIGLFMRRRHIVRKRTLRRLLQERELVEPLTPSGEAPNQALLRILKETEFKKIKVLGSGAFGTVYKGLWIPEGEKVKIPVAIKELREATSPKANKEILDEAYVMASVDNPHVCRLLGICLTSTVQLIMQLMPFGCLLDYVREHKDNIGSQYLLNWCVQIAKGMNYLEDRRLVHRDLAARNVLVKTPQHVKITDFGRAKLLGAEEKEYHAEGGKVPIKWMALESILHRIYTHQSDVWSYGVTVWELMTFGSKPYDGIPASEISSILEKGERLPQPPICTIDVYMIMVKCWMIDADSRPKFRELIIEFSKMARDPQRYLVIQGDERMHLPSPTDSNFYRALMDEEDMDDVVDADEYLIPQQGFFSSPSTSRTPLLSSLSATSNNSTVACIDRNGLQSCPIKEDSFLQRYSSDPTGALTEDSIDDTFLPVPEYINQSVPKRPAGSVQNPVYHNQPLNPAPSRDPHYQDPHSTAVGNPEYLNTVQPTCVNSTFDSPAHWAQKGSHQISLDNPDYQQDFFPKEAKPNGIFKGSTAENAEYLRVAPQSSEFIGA
# Text: (§2) Assays using an in vitro kinase assay kit (HTRF KinEASE-TK kit) can be used to study the inhibitory activity of compounds described herein with respect to EGFR mutants such as EGFR^L858R, EGFR^L58R/T790M, and EGFR^L858R/T790M/C^797S.
# [1] = target: Ba/F3 EGFR-Del19/T790M/C797S (Homo sapiens, UniProt P00533, T790M/C797S, cells depend on it, form not given); experiment: Ba/F3 viability assay (CellTiter-Glo), DTC; assay type: cell-based; conditions: anti-proliferation, read-out: BaF3 DTC IC50
# Text: as §1
# EGFR^L858R/T790M/C^797S = EGFR^L858R/T790M/C^797S (Homo sapiens, UniProt P00533, C797S/L858R/T790M); experiment: in vitro kinase assay (HTRF KinEASE-TK kit), LTC; assay type: biochemical; conditions: kinase inhibition
# EGFR^L858R/T790M/C^797S, sequence (P00533 25-1210 T790M/C797S/L858R): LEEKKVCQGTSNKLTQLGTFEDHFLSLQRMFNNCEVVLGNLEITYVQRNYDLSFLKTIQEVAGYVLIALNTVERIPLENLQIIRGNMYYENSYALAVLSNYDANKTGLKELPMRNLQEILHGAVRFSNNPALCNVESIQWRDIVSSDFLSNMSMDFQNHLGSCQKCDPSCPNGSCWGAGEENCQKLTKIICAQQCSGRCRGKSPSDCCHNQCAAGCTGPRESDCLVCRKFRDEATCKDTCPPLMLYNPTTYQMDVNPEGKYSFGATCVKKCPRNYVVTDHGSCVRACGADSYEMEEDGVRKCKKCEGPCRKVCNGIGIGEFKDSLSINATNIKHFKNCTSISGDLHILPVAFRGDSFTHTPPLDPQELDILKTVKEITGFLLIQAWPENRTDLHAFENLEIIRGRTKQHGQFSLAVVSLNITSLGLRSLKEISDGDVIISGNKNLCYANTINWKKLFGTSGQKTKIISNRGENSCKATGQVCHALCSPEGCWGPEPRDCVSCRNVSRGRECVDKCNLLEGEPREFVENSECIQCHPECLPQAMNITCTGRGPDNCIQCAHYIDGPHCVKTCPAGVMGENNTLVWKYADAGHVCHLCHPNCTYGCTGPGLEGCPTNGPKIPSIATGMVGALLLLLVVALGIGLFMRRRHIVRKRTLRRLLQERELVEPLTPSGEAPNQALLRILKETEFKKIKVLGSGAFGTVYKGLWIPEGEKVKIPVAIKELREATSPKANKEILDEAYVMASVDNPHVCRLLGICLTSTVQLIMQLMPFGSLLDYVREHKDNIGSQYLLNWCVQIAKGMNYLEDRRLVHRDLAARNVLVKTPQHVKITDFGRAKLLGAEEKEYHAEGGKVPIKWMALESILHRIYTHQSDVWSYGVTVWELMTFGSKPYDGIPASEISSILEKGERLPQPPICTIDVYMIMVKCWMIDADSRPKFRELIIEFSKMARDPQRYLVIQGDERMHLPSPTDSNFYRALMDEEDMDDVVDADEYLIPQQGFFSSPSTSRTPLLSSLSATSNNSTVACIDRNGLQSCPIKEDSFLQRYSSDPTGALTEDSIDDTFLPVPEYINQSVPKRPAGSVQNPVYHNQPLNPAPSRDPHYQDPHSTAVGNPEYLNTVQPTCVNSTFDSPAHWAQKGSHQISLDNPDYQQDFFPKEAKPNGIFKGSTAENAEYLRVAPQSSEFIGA
# Text: as §2
# EGFR^L858R = EGFR^L858R (Homo sapiens, UniProt P00533, L858R); experiment: in vitro kinase assay (HTRF KinEASE-TK kit), L; assay type: biochemical; conditions: kinase inhibition
# EGFR^L858R, sequence (P00533 25-1210 L858R): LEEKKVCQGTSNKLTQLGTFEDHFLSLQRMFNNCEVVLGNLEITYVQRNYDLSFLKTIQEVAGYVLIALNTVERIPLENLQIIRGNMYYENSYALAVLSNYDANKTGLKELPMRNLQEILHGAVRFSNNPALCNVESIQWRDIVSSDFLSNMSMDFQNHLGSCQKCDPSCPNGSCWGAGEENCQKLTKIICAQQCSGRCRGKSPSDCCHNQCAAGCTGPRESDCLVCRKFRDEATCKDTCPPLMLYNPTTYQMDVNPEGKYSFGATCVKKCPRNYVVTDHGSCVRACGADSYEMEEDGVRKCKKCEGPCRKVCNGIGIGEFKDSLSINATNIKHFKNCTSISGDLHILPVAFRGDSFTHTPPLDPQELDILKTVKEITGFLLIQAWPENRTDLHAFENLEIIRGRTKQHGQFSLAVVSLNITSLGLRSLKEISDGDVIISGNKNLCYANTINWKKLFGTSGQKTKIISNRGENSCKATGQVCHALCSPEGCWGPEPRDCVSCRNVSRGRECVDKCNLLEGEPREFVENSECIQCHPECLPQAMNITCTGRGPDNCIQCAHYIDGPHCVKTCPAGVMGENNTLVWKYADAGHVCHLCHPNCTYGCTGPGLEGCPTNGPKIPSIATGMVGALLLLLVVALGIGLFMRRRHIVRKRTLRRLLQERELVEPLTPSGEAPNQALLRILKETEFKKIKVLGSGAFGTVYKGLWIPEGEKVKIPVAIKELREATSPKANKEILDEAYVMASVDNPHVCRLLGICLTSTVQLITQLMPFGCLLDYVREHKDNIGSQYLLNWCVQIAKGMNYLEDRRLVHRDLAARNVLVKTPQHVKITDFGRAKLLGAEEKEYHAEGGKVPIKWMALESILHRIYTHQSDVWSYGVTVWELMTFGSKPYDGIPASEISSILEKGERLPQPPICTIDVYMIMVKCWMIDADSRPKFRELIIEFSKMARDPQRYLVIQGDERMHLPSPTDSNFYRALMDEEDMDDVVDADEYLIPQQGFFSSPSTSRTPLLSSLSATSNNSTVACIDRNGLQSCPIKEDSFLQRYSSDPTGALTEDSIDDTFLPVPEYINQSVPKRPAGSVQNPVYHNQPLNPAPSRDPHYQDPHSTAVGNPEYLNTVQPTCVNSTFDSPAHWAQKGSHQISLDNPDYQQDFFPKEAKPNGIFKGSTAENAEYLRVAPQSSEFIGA
# Text: as §2
# Ba/F3 EGFR-Del19/T790M = Ba/F3 EGFR-Del19/T790M (Homo sapiens, UniProt P00533, T790M, cells depend on it, form not given); experiment: Ba/F3 viability assay (CellTiter-Glo), DT; assay type: cell-based; conditions: anti-proliferation, read-out: BaF3 DT IC50
# Text: as §1
# [2] = Mus musculus, BaF3, anti-proliferation
Compound,IC50 (EGFR^L58R/T790M) [µM],IC50 (EGFR^L858R/T790M/C^797S) [µM],IC50 (EGFR^L858R) [µM],IC50 (Ba/F3 Parental; [2]) [µM],GI50 (Ba/F3 EGFR-Del19/C797S) [µM],GI50 [1] [µM],GI50 (Ba/F3 EGFR-Del19/T790M) [µM],"IC50 (Ba/F3 Parental; anti-proliferation, read-out: BaF3 parental IC50) [µM]"
CC1CCOc2c(cnn2CC2CC2)-c2nccc(n2)Nc2cc3c(cn2)c(N2CCC2)nn31 (stereo not shown) [(2)],< 0.01,< 0.01,0.01 to 0.1,0.1 to 1,0.01 to 0.1,0.01 to 0.1,0.01 to 0.1,
Cn1ncc2c1OCCCn1nc(N3CCC3)c3cnc(cc31)Nc1ccnc-2n1 [(3)],< 0.01,< 0.01,0.01 to 0.1,0.1 to 1,0.1 to 1,0.1 to 1,0.01 to 0.1,
"Cn1ncc2c1OCCC(C)(C)n1nc(N3CCC3)c3cnc(cc31)Nc1ccnc-2n1 [(4), 19-(azetidin-1-yl)-11,16,16-trimethyl-13-oxa-2,6,10,11,17,18,22,25-octazapentacyclo[15.5.2.1^3,7.0^8,12.0^20,24]pentacosa-1(22),3,5,7(25),8(12),9,18,20,23-nonaene]",< 0.01,< 0.01,0.1 to 1,≥ 1,0.1 to 1,0.1 to 1,0.1 to 1,
CCC1CCOc2c(cnn2C)-c2nccc(n2)Nc2cc3c(cn2)c(N2CCC2)nn31 (stereo not shown) [(5)],< 0.01,< 0.01,0.01 to 0.1,≥ 1,0.01 to 0.1,0.01 to 0.1,0.01 to 0.1,
CC1COc2c(cnn2C)-c2nccc(n2)Nc2cc3c(cn2)c(N2CCC2)nn3C1 (stereo not shown) [(6)],< 0.01,< 0.01,0.01 to 0.1,0.1 to 1,0.01 to 0.1,0.01 to 0.1,0.01 to 0.1,
CN1CCN(CC2CCCN2c2nn3c4cc(ncc24)Nc2ccnc(n2)-c2cnn(C)c2OCCC3)CC1 (stereo not shown) [(10)],< 0.01,< 0.01,0.1 to 1,0.1 to 1,0.1 to 1,0.1 to 1,0.1 to 1,
CN(C)CC1CCCN1c1nn2c3cc(ncc13)Nc1ccnc(n1)-c1cnn(C)c1OCCC2 (stereo not shown) [(11)],< 0.01,< 0.01,0.1 to 1,0.1 to 1,0.1 to 1,0.1 to 1,0.1 to 1,
CN(C)CC1CCN(c2nn3c4cc(ncc24)Nc2ccnc(n2)-c2cnn(C)c2OCCC3)C1 (stereo not shown) [(13)],< 0.01,< 0.01,0.01 to 0.1,0.1 to 1,0.1 to 1,0.01 to 0.1,0.01 to 0.1,
"CC1CCOc2ccncc2-c2nccc(n2)Nc2cc3c(cn2)c(N2CCC2)nn31 (stereo not shown) [(14), 20-(azetidin-1-yl)-17-methyl-14-oxa-2,6,10,18,19,23,26-heptazapentacyclo[16.5.2.13,7.08,13.021,25]hexacosa-1(23),3,5,7(26),8(13),9,11,19,21,24-decaene]",< 0.01,< 0.01,< 0.01,0.01 to 0.1,< 0.01,< 0.01,< 0.01,
CN1CCN(CC2CCN(c3nn4c5cc(ncc35)Nc3ccnc(n3)-c3cnn(C)c3OCCC4)C2)CC1 (stereo not shown) [(57)],< 0.01,< 0.01,0.01 to 0.1,0.1 to 1,0.01 to 0.1,0.01 to 0.1,0.01 to 0.1,
COC(=O)C1CCCN1c1nn2c3cc(ncc13)Nc1ccnc(n1)-c1cnn(C)c1OCCC2 (stereo not shown) [(61)],< 0.01,0.01 to 0.1,0.1 to 1,≥ 1,0.1 to 1,0.1 to 1,0.1 to 1,
Cn1ncc2c1OCCCn1nc(N3CCCC3CO)c3cnc(cc31)Nc1ccnc-2n1 (stereo not shown) [(62)],< 0.01,< 0.01,0.1 to 1,0.1 to 1,0.1 to 1,0.1 to 1,0.1 to 1,
Cn1ncc2c1OCCCn1nc(N3CCCC3C(=O)O)c3cnc(cc31)Nc1ccnc-2n1 (stereo not shown) [(65)],< 0.01,< 0.01,0.1 to 1,0.1 to 1,0.1 to 1,0.1 to 1,0.1 to 1,
CN1CCN(C(=O)C2CCN(c3nn4c5cc(ncc35)Nc3ccnc(n3)-c3cnn(C)c3OCCC4)C2)CC1 (stereo not shown) [(66)],< 0.01,< 0.01,0.01 to 0.1,≥ 1,0.1 to 1,0.1 to 1,0.1 to 1,
CC1CCCOc2c(cnn2C)-c2nccc(n2)Nc2cc3c(cn2)c(N2CCCC2)nn31 (stereo not shown) [(71)],< 0.01,< 0.01,< 0.01,0.1 to 1,0.01 to 0.1,0.01 to 0.1,0.01 to 0.1,
CC(C)n1ncc2c1OCCCC(C)n1nc(N3CCC3)c3cnc(cc31)Nc1ccnc-2n1 (stereo not shown) [(74)],< 0.01,< 0.01,0.1 to 1,≥ 1,0.1 to 1,0.1 to 1,0.1 to 1,

# Second part, led by results:
IC50 (EGFR^L58R/T790M) [µM],IC50 (EGFR^L858R/T790M/C^797S) [µM],IC50 (EGFR^L858R) [µM],Compound,IC50 (Ba/F3 Parental; [2]) [µM],GI50 (Ba/F3 EGFR-Del19/C797S) [µM],GI50 [1] [µM],GI50 (Ba/F3 EGFR-Del19/T790M) [µM],"IC50 (Ba/F3 Parental; anti-proliferation, read-out: BaF3 parental IC50) [µM]"
< 0.01,< 0.01,< 0.01,CC1CCCOc2c(cnn2C)-c2nccc(n2)Nc2cc3c(cn2)c(N2CCC2)nn31 (stereo not shown) [(1)],0.1 to 1,0.01 to 0.1,< 0.01,< 0.01,
< 0.01,< 0.01,0.01 to 0.1,CC1CCOc2c(cnn2C)-c2nccc(n2)Nc2cc3c(cn2)c(N2CC(C(C)(C)O)C2)nn31 (stereo not shown) [(8)],0.1 to 1,0.01 to 0.1,0.01 to 0.1,0.01 to 0.1,
< 0.01,< 0.01,0.01 to 0.1,"CC1CCOc2c(cnn2C)-c2nccc(n2)Nc2cc3c(cn2)c(-c2cccn2CCN(C)C)nn31 (stereo not shown) [(12), 2-[2-(11,16-dimethyl-13-oxa-2,6,10,11,17,18,22,25-octazapentacyclo[15.5.2.13,7.08,12.020,24]pentacosa-1(22),3,5,7(25),8(12),9,18,20,23-nonaen-19-yl)pyrrol-1-yl]-N,N-dimethyl-ethanamine]",0.1 to 1,0.01 to 0.1,0.01 to 0.1,0.01 to 0.1,
< 0.01,< 0.01,0.01 to 0.1,CC1CCOc2c(cnn2C)-c2nccc(n2)Nc2cc3c(cn2)c(N2CC(C(=O)N(C)C)C2)nn31 (stereo not shown) [(16)],0.1 to 1,0.01 to 0.1,0.01 to 0.1,0.01 to 0.1,
< 0.01,< 0.01,0.01 to 0.1,"CC1CCOc2c(cnn2C)-c2nccc(n2)Nc2cc3c(cn2)c(N2CCC2)nn31 (stereo not shown) [(33), 17-(azetidin-1-yl)-20,27-dimethyl-30-oxa-21,22,23,24,25,26,27,28-octazapentacyclopentacosa-2,4(14),5(22),6(23),12(24),13(15),16(18),17(25),19(21)-nonaene]",≥ 1,0.01 to 0.1,0.01 to 0.1,0.01 to 0.1,
< 0.01,< 0.01,0.01 to 0.1,CC1CCCCOc2c(cnn2C)-c2nccc(n2)Nc2cc3c(cn2)c(N2CCC2)nn31 (stereo not shown) [(58)],≥ 1,0.01 to 0.1,0.01 to 0.1,0.01 to 0.1,
< 0.01,< 0.01,< 0.01,"CC1CCOc2c(cnn2C)-c2nccc(n2)Nc2cc3c(cn2)c(-c2ccc(CN4CCN(C)CC4)o2)nn31 (stereo not shown) [(63), 11,16-dimethyl-19-[5-[(4-methylpiperazin-1-yl)methyl]-2-furyl]-13-oxa-2,6,10,11,17,18,22,25-octazapentacyclo[15.5.2.13,7.08,12.020,24]pentacosa-1(22),3,5,7(25),8(12),9,18,20,23-nonaene]",0.1 to 1,< 0.01,0.01 to 0.1,0.01 to 0.1,
< 0.01,< 0.01,0.01 to 0.1,CC1CCOc2c(cnn2C)-c2nccc(n2)Nc2cc3c(cn2)c(-c2cnn(C4CC4)c2)nn31 (stereo not shown) [(64)],0.1 to 1,0.01 to 0.1,0.01 to 0.1,0.01 to 0.1,
< 0.01,< 0.01,0.01 to 0.1,CC1CCOc2c(cnn2C)-c2nccc(n2)Nc2cc3c(cn2)c(-c2ccn(C)n2)nn31 (stereo not shown) [(69)],≥ 1,0.01 to 0.1,0.01 to 0.1,0.01 to 0.1,
< 0.01,< 0.01,< 0.01,C[C@H]1CCOc2c(cnn2C)-c2nccc(n2)Nc2cc3c(cn2)c(N2CCC2)nn31 [(70)],,0.01 to 0.1,0.01 to 0.1,< 0.01,0.1 to 1
< 0.01,< 0.01,0.01 to 0.1,CC1CCCOc2c(cnn2C)-c2nccc(n2)Nc2cc3c(cn2)c(-c2ccnn2C)nn31 (stereo not shown) [(75)],0.1 to 1,0.01 to 0.1,0.01 to 0.1,0.01 to 0.1,
< 0.01,< 0.01,< 0.01,CCn1cc(-c2nn3c4cc(ncc24)Nc2ccnc(n2)-c2cnn(C)c2OCCC3C)cc1CN1CCN(C)CC1 (stereo not shown) [(76)],0.01 to 0.1,< 0.01,< 0.01,< 0.01,
